Assays:
[1] = test system: relaxed and negatively supercoiled pUC19 DNA; conditions: value reported for cisplatin; cited from earlier work
[2] = test system: relaxed and negatively supercoiled pUC19 DNA; experiment: DNA unwinding experiment by gel electrophoresis; format: binding; conditions: pUC19 plasmid incubated 1.5 hr at 37° C., rb 0-0.074
Procedure: Lanes: 0 Control rb=0; 1, rb=0.008; 2, rb=0.0.016; 3, rb=0.025; 4, rb=0.033; 5, rb=0.041; 6, rb=0.049; 7, rb=0.057; 8, rb=0.066; 9, rb=0.074.
The unwinding angle was determined to be 13° for this experiment, which is the same as that reported for cisplatin (13°). The plasmid was incubated with Im/Py/Py-Pt for 1.5 hr at 37° C. Lanes: 0 Control rb=0; 1, rb=0.008; 2, rb=0.0.016; 3, rb=0.025; 4, rb=0.033; 5, rb=0.041; 6, rb=0.049; 7, rb=0.057; 8, rb=0.066; 9, rb=0.074. The top bands correspond to the form of nicked plasmid and the bottom bands to the closed, negatively supercoiled plasmid shown in FIG. 4.

[3] = test system: d(CATTGTCAGAC)2 (target site); experiment: CD titration, affinity constant for target-site duplex; format: binding; conditions: derived from CD titrations; 5 μM duplex DNA, 10 mM sodium phosphate pH 7.0, 40 mM NaCl, room temperature
Procedure: (§1) The changes are generally monitored until saturation is reached. The equilibrium constant can be determined using standard techniques, such as Scatchard plot, the McGhee Von Hippel model, or least squares, for analysis.
(§2) All CD measurements were recorded on a Jasco J-810 CD spectropolarimeter at room temperature and cell length of 1 cm. Titrations were performed by incrementally adding aliquots of Im/Py/Py-Pt to a 2600 μL solution of 5 μM duplex DNA. After each addition, an average CD spectrum from 240 to 400 nm (20 accumulations) was recorded. DNA concentration was 5 μM. The concentration of Im/Py/Py-Pt ranged from 0 to 10 μM. Solution conditions were 10 mM sodium phosphate (pH 7.0) and 40 mM NaCl.

[4] = test system: d(CATTGACAGAC)2 (single mismatch site); experiment: CD titration, affinity constant for single-mismatch duplex; format: binding; conditions: derived from CD titrations; 5 μM duplex DNA, 10 mM sodium phosphate pH 7.0, 40 mM NaCl, room temperature
Procedure: as §1, §2

[5] = test system: d(CATTGAGAGAC)2 (double mismatch site); experiment: CD titration, affinity constant for double-mismatch duplex; format: binding; conditions: derived from CD titrations; 5 μM duplex DNA, 10 mM sodium phosphate pH 7.0, 40 mM NaCl, room temperature
Procedure: as §1, §2

[6] = test system: recombinant pSP64 derivative; experiment: In vitro transcription assay (inhibition of RNA synthesis); format: biochemical; conditions: increasing molar concentration; after 12 hour platination in the dark at 4° C.; 40 mM Tris-HCl pH 7.9
Procedure: FIG. 5—In vitro Transcription Assay “trans-Im/Py/Py-[CONH(CH2)2—NH2)Pt(NH3)2Cl” (“DJ1953-2”) The Inhibition of RNA synthesis by DJ1953-2 was assessed using a recombinant pSP64 derivative. Incubations were carried out in 40 mM Tris-HCl (pH 7.9), 6 mM MgCl2, 2 mM spermidine, 10 mM NaCl. Lane (1) 100-500 bases RNA marker; (2) to (8) increasing molar concentration of DJ1953-2. […] Experiments were conducted after 12 hour platination reactions (in the dark at 4° C.).
The Inhibition of RNA synthesis by DJ1953-2 was assessed using a recombinant pSP64 derivative. Incubations were carried out in 40 mM Tris-HCl (pH 7.9), 6 mM MgCl2, 2 mM spermidine, 10 mM NaCl. Lane (1) 100-500 bases RNA marker; Lanes (2) to (8) increasing molar concentration of DJ1953-2. […] Experiments were conducted after 12 hour platination reactions (in the dark at 4° C.).

Row | Molecule | unwinding angle (reported) [1] [°] | unwinding angle [2] [°] | apparent first-order affinity constant K for binding site d(CATTGTCAGAC)2 [3] | apparent first-order affinity constant K for binding site d(CATTGACAGAC)2 [4] | apparent first-order affinity constant K for binding site d(CATTGAGAGAC)2 [5] | inhibition of RNA synthesis (full-length transcript, 335 bases) [6]
1 | N.N.[Cl][Pt][Cl] [cisplatin, cis-diamminedichloroplatinum(II)] | 13 | – | – | – | – | –
2 | trans-Im/Py/Py-Pt(Cl)(NH3)2 | – | 13 | – | – | – | –
3 | Cn1cc(NC(=O)c2cc(NC(=O)c3nccn3C)cn2C)cc1C(=O)NCCCCCC[NH][Pt]([NH2])([NH2])[Cl] [DJ-1953-6, trans-Im/Py/Py-[CONH(CH2)6—NH2)Pt(NH3)2Cl] | – | – | 2.4 × 10^6 (0.1) M^−1 | 4.4 × 10^5 (0.2) M^−1 | 1.3 × 10^6 (0.1) M^−1 | –
4 | tans-Im/Py/Py-[CONH(CH2)2—NH2)Pt(NH3)2Cl [DJ-1953-2] | – | – | 1.2 × 10^6 (0.1) M^−1 | 5.6 × 10^5 (0.2) M^−1 | 3.0 × 10^5 (0.1) M^−1 | inhibition of the full-length transcript (FLT) can be seen
